Measurements published in patent publication US7951405B2 (priority 2004, dated 2011).
Entries after “also recorded” stand apart in the source; their conditions may differ. Like-named read-outs stand apart in the source and are kept apart here.

Columns and labels:
[1] = Chronic-dose plasma and tumor concentrations of erlotinib in tumor-bearing mice; format: in vivo, nu/nu athymic mice
Experimental: On day 28 post tumor implant, blood (from the retro-orbital sinus) and tumor samples were collected at 1 and 6 hours post dosing. […] Values are means±SD, n=3.
(§1) For single-dose pharmacokinetics (PK), blood samples from three mice per time point were collected by cardiac puncture at 5, 15, 30, 60 minutes and 2, 4, 8, 16, 24 hours post-dose. For chronically treated animals, blood samples from two or three mice per time point were collected via the retro-orbital sinus at 1 and 6 hours. Collection tubes contained ethylene diamine tetra-acetic acid (EDTA) as anticoagulant. Samples were stored at −70° C. […] PK parameters were estimated by non-compartmental analysis of the composite data, using the PK evaluation programme WinNonlin PRO® version 3.1 (Pharsight Inc).

A549 NSCLC xenograft = format: in vivo
Experimental: Mice were implanted with A549 NSCLC cells. […] Tumor size was measured 3 times per week. Values are means, n=10.
(§2) H460a cells (provided by Dr Jack Roth, MD, Anderson) were grown in Dulbecco's Modified Eagle Media (DMEM) supplemented with 10% Foetal Bovine Serum (FBS). A549 cells (American Type Culture Collection [Manassas, Va.] were grown in Roswell Park Memorial Institute medium (RPMI) 1640+10% FBS. The cell concentrations for implant were 1×10^7 cells/0.2 mL for H460a and 7.5×10^6 cells/0.2 mL for A549.
(§3) Cells were suspended in phosphate-buffered saline, and implanted subcutaneously in the right flank of each mouse. Once palpable tumours were established, animals were randomised so that all groups had similar starting mean tumour volumes of 100-150 mm^3. Tumour measurements and mouse weights were taken three times per week. Animals were individually monitored throughout the experiment.
All groups were treated daily for 3 weeks.
All groups were treated every 6 days for 3 weeks (a total of three injections).
(§4) Weight loss was calculated as percent change in mean group body weight, using the formula: ((W−W0)/W0)×100 • where ‘W’ represents mean body weight of the treated group at a particular day, and ‘W0’ represents mean body weight of the same group at start of treatment. Maximum weight loss was also calculated using the above formula, giving the maximum percentage of body weight lost at any time in the entire experiment for a particular group. Treatment efficacy was assessed by tumor growth inhibition. Tumour volumes of treated groups were given as percentages of tumor volumes of the control groups (% T/C), using the formula: 100×((T−T0)/(C−C0)) • where ‘T’ represents mean tumor volume of a treated group on a specific day during the experiment, ‘T0’ represented mean tumor volume of the same group on the first day of treatment, C represents mean tumor volume of a control group on a particular day of the experiment, and C0 represents mean tumor volume of the same group on the first day of treatment.
(§5) Tumor growth inhibition was calculated using the formula: 100−% T/C
(§6) Tumor volume (mm^3) was calculated using the ellipsoid formula: (Dx(d^2))/2 • where ‘D’ represents the large diameter of the tumor, and ‘d’ represents the small diameter. In some cases, tumor regression and/or percentage change in tumor volume was calculated using the formula: ((T−T0)/T0)×100 • where ‘T’ represents mean tumor volume of the treated group at a particular day, and ‘T0’ represents mean tumor volume of the same treated group at the start of treatment.

[2] = Pathology/necropsy and tumor immunohistochemistry in treated xenograft mice
From the text: At necropsy, skin samples were fixed in 10% buffered formalin, embedded in paraffin, sectioned at 5μ and stained with haematoxylin and eosin.
Five mice per treatment from all remaining groups were given a full necropsy at the end of the study.
Tumor samples were fixed by immersion in 10% zinc formalin then processed in a Tissue-Tek® VIP (Sakura) and embedded in paraffin. Sections for immunohistochemistry were cut at 5μ. Pre-immune rabbit or goat serum (Dako Ltd) was used as the negative control. Sections were immersed in Target Retrieval Solution (Dako Ltd) and heated to 94° C. in a steamer (Black & Decker) for 20 minutes. Endogenous peroxidase activity was quenched with 6% H2O2 in methanol for 15 minutes.
For platelet endothelial cell adhesion molecule (PECAM-1, CD31) antigen and EGFR antigen, the sections were incubated overnight at room temperature with a polyclonal goat anti-PECAM-1 IgG (Santa Cruz Biotechnology, Santa Cruz, Calif.) diluted 1:800 in Antibody Diluent (Dako Ltd) or with a polyclonal rabbit anti-EGFR IgG (BioGenex, San Ramon, Calif.) diluted 1:50 in Antibody Diluent (Dako Ltd). Sections were incubated with Vectastain Elite ABC-peroxidase (Vector Laboratories) for 45 minutes at room temperature.
To detect apoptosis, the TUNEL TdT-FragEL™ DNA fragmentation detection kit (Oncogene Research Products, San Diego, Calif.) was used according to the manufacturer's recommendations. For all four antigens, Vector Nova Red (Vector Laboratories) was the final chromogen and haematoxylin the nuclear counterstain.

[3] = Single-dose pharmacokinetics of erlotinib in non-tumor bearing mice; format: in vivo, female nu/nu athymic mice
Experimental: as §1
Three animals per time point were evaluated for PK data (FIG. 3).

H460a NSCLC xenograft = experiment: Tumor growth inhibition in H460a NSCLC xenograft model; format: in vivo, athymic nude mice
Experimental: (§7) Mice were implanted with H460a NSCLC cells. […] Tumor size was measured 3 times per week. Values are means, n=10.
as §7, §2, §3
All groups were treated daily for 3 weeks. […]
Weight loss was calculated as percent change in mean group body weight, using the formula: ((W−W0)/W0)×100 • where ‘W’ represents mean body weight of the treated group at a particular day, and ‘W0’ represents mean body weight of the same group at start of treatment. Maximum weight loss was also calculated using the above formula, giving the maximum percentage of body weight lost at any time in the entire experiment for a particular group. Treatment efficacy was assessed by tumor growth inhibition. […]
as §5, §6

[4] = format: in vivo
Experimental: FIG. […]
as §4

[5] = cited from earlier work
[6] = erlotinib monotherapy, treated xenografts

## C#Cc1cccc(Nc2ncnc3cc(OCCOC)c(OCCOC)cc23)c1 [erlotinib, [6,7-bis(2-methoxyethoxy)-4-quinazolin-4-yl]-(3-ethynylphenyl) amine]
[1]; H460a tumor-bearing mice
  Correlation of tumor concentrations with plasma concentrations: correlated well
[1]; ascending oral doses 6.3-150.0 mg/kg, tumor-bearing mice
  Dose dependence of exposure: dose-dependent and more than dose-proportional
A549 NSCLC xenograft; erlotinib 25 mg/kg, day 47 post tumor implantation
  Tumor growth inhibition: 25%
A549 NSCLC xenograft; erlotinib 100 mg/kg
  Extent of partial regression: 2%
  Number of partial regressions: one
A549 NSCLC xenograft; erlotinib 100 mg/kg, day 47 post tumor implantation
  Tumor growth inhibition: 93%
[2]; erlotinib 1000 mg/kg (so in the source), both NSCLC xenograft tumor models
  Ki-67 proliferative index in tumor: mild decrease
[2]; erlotinib monotherapy
  Haematology and clinical chemistry parameters: no changes
[2]; erlotinib monotherapy (100 mg/kg/day for 21 days), transient
  Skin lesions (macroscopic): substantial reddening and crusting of the skin of the muzzle; also recorded: reddened and flaky
[2]; [6]
  Angiogenesis, microvascular density (MVD) via CD31 staining: no clear effect
  Frequency of apoptosis in tumor cells (TUNEL): no significant difference
[3]; 20 and 100 mg/kg single dose by gavage
  Time of maximum plasma concentration post dose: 0.5 to 1.0 h
[3]; 20 vs 100 mg/kg single dose
  Dose proportionality of exposure (AUC): dose-proportional
[3]; erlotinib 20 mg/kg single dose by gavage
  Mean maximum plasma concentration: ~9,100 ng/mL
[3]; erlotinib 100 mg/kg single dose by gavage
  Mean maximum plasma concentration: approximately 24,000 ng/mL
H460a NSCLC xenograft; erlotinib monotherapy dose response study
  Tumor regressions: no partial or complete regressions
[4]; erlotinib 150 mg/kg for 3 weeks, previous efficacy studies (unpublished observation)
  Tolerability: well tolerated
[4]; erlotinib 200 mg/kg group
  Toxicity outcome: marked weight loss and all were euthanized
[4]; erlotinib 400 mg/kg group
  Toxicity outcome: One mouse in the 400 mg/kg group died

## N.N.[Cl][Pt][Cl] [cisplatin]
A549 NSCLC xenograft; cisplatin 1.5 mg/kg, non-significant
  Tumor growth inhibition: 30%
A549 NSCLC xenograft; cisplatin 6 mg/kg
  Extent of partial regression: 2%
  Number of partial regressions: one
A549 NSCLC xenograft; cisplatin 6 mg/kg, day 47 post tumor implantation
  Tumor growth inhibition: 88%
[2]; cisplatin alone and in combination, severity dose dependent
  Primary microscopic kidney lesions: tubular necrosis and tubular basophilia
H460a NSCLC xenograft; cisplatin 1.5 mg/kg i.p. every 6 days
  Tumor growth inhibition: 42%
H460a NSCLC xenograft; cisplatin 6 mg/kg i.p. every 6 days
  Tumor growth inhibition: 81%
[4]; cisplatin every 6 days x3 i.p., athymic nude mice
  MTD: 6 mg/kg
[5]; cisplatin every 4 days x3 i.v. in nude mice (Riccardi 2001)
  MTD: 4 mg/kg
[5]; cisplatin every 6 days x2 i.v. in nude mice (Perez-Soler 2001)
  MTD: 4 mg/kg
[5]; cisplatin every 6 days x3 i.p. in C57/B16 mice (van Moorsel 1999)
  MTD: 6 mg/kg
